Results as given in ChEMBL document CHEMBL2046431 (Bioorg Med Chem, 2012).

Assay: Permeability across human Caco2 cells
Format: ADME, cell-based
Conditions: Caco-2, read-out: permeability

| Papp [×10⁻⁶ cm/s] | SMILES |
| --- | --- |
| ≤ 1 | CC(C)c1cccc(CNC[C@@H](O)[C@@H]2COCCCCCNC(=O)c3cc(cc(N(C)S(C)(=O)=O)c3)C(=O)N2)c1 |
| ≤ 1 | CC(C)c1cccc(CNC[C@@H](O)[C@@H]2COC/C=C/C[C@@H](c3ccccc3)NC(=O)c3cc(cc(N(C)S(C)(=O)=O)c3)C(=O)N2)c1 |
| ≤ 1 | CN(c1cc2cc(c1)C(=O)N[C@H]([C@H](O)CNCc1cccc(C(C)(C)C)c1)COC/C=C/CCNC2=O)S(C)(=O)=O |
| ≤ 1 | Cc1cc2cc(c1)C(=O)N[C@H]([C@H](O)CNCc1ccccc1)COC/C=C/CCNC2=O |
| ≤ 1 | CC(C)c1cccc(CNC[C@@H](O)[C@@H]2COC/C=C/CCCNC(=O)c3cc(cc(N(C)S(C)(=O)=O)c3)C(=O)N2)c1 |
| ≤ 1 | CC(C)c1cccc(CNC[C@@H](O)[C@@H]2COCCCCCCNC(=O)c3cc(cc(N(C)S(C)(=O)=O)c3)C(=O)N2)c1 |
| ≤ 1 | Cc1cc2cc(c1)C(=O)N[C@@H](c1ccccc1)C/C=C/COC[C@@H]([C@H](O)CNCc1cccc(C(C)C)c1)NC2=O |
| ≤ 1 | CN(c1cc2cc(c1)C(=O)N[C@H]([C@H](O)CNCc1ccccc1)COCCCCCNC2=O)S(C)(=O)=O |
| ≤ 1 | CN(c1cc2cc(c1)C(=O)N[C@H]([C@H](O)CNCc1ccccc1)COC/C=C/CCNC2=O)S(C)(=O)=O |
| ≤ 1 | Cc1cc2cc(c1)C(=O)N[C@H]([C@H](O)CNCc1cccc(C(C)C)c1)COC/C=C/C[C@@H](c1ccccc1)NC2=O |
| ≤ 1 | CC(C)c1cccc(CNC[C@@H](O)[C@@H]2COC/C=C/C[C@H](c3ccccc3)NC(=O)c3cc(cc(N(C)S(C)(=O)=O)c3)C(=O)N2)c1 |
| ≤ 1 | CC(C)c1cccc(CNC[C@@H](O)[C@@H]2COC/C=C\CCN(C)C(=O)c3cc(cc(N(C)S(C)(=O)=O)c3)C(=O)N2)c1 |
| ≤ 1 | CC(C)c1cccc(CNC[C@@H](O)[C@@H]2COC/C=C/CCNC(=O)c3cc(cc(N(C)S(C)(=O)=O)c3)C(=O)N2)c1 |
| ≤ 1 | Cc1cc2cc(c1)C(=O)N[C@H]([C@H](O)CNCc1cccc(C(C)C)c1)COC/C=C/CCNC2=O |
